The target in one test is T1, BaF3 cells transformed with NPM/ALK (Homo sapiens, UniProt Q9UM73).
T1 construct: fused on or other part: P06748 (Nucleophosmin)
T1 sequence (Q9UM73 whole entry, change not shown, the tested form may be a part): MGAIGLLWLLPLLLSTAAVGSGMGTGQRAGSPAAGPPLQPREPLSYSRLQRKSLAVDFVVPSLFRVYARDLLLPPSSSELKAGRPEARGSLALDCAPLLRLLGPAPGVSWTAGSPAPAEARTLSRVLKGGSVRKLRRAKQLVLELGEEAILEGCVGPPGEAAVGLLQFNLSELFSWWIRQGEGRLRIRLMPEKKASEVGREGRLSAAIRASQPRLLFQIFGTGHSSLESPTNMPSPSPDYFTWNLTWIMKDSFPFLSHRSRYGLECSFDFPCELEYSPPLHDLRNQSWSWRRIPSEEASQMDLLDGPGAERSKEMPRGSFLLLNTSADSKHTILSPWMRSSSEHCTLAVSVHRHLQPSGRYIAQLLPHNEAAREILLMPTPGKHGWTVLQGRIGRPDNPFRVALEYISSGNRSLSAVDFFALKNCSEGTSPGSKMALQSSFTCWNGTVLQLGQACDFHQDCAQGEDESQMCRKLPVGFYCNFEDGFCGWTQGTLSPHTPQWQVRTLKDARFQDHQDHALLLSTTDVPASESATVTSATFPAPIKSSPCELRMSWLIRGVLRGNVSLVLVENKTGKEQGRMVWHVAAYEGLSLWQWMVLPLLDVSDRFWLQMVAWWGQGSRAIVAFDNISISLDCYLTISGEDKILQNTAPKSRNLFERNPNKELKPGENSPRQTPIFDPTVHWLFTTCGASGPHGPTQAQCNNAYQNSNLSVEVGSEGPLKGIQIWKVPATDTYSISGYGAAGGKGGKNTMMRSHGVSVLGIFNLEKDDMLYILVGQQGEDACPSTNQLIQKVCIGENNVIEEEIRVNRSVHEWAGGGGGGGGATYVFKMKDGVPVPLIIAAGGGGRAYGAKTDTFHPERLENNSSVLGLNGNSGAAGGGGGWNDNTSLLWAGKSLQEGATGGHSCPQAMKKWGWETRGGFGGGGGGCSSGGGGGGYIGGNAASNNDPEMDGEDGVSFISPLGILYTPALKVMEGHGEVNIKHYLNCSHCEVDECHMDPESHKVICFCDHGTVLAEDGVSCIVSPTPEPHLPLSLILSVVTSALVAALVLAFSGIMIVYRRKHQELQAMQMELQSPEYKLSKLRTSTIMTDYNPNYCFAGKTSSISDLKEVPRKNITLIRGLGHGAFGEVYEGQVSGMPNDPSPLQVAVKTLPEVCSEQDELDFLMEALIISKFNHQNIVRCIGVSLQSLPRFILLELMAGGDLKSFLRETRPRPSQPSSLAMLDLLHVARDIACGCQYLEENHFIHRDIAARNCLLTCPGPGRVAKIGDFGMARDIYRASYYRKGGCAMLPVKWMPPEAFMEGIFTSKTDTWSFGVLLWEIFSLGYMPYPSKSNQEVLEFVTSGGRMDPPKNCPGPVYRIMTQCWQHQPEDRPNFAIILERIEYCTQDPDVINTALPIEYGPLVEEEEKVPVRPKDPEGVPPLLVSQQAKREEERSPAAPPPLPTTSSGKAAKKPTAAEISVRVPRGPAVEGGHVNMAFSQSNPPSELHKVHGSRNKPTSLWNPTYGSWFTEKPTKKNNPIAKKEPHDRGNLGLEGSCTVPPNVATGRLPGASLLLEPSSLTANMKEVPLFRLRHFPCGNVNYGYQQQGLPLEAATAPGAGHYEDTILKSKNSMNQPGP
As to the kind of experiment: Tritiated thymidine uptake cell proliferation assay. It is filed as cell-based. The note with it: read-out: IC50 values on the proliferation of BaF3 cells transformed with NPM/ALK; 72 h incubation, 3[H]-thymidine uptake. The procedure:
Method: Tritiated Thymidine Uptake Cell Proliferation Assay
BaF3 cells, transformed with the oncogenic fusion protein NPM/ALK, were seeded in U-bottomed 96-well plates at 10 000 cells/well in a volume of 100 μL in supplemented medium. Serial dilutions of inhibitors were added to the appropriate wells and volumes adjusted to 200 μL. Controls were treated with the equivalent volume of vehicle, DMSO, alone. Plates were incubated at 37° C. for 72 h. ^3[H-]-thymidine (1 μCi/well) was added for the last 16 h of incubation. Cells were harvested on to glass filters and ^3[H]-thymidine incorporation was measured using a scintillation counter (1430 MicroBeta, Wallac, Turku, Finland).
For `CC(C)(C)c1csc(-c2ccc(-c3csnn3)cc2)n1` [r79], the GI50 turned out to be 33 µM.

As for `CCOC(=O)c1csc(-c2ccc(-c3csnn3)cc2)n1` [r80], the GI50 turned out to be 31 µM.

With `O=C1Nc2ccc(Br)cc2/C1=N/Nc1nc(-c2ccc(-c3ccccc3)cc2)cs1` [r49], the GI50 was determined as 12 µM.

Turning to `CN1CCN(Cc2ccc(C(=O)Nc3nc(-c4ccc5c(c4)Cc4ccccc4-5)cs3)cc2)CC1` [r89], the GI50 was determined as 36 µM.

Regarding `O=C(N/N=C/c1c[nH]c2ccccc12)c1cc(-c2ccc(-c3ccccc3)cc2)[nH]n1` [r66], the GI50 turned out to be 4.8 µM.

Take `Cc1csc(-c2ccc(-c3csnn3)cc2)n1` [r78]: the GI50 was 7.6 µM.

For the next test, the target named is T2, Recombinant Abl T315I (Homo sapiens, UniProt P00519, T315I).
T2 construct: His tag (from pBlueBacHis2C vector); made in house; host or cells: Sf9 insect cells, baculovirus
As to the kind of experiment: ELISA-based in vitro kinase assay (Abl T315I mutant kinase inhibitory activity). The format is biochemical. Conditions: purified Abl T315I, 0.3 mM ATP, peptide substrate. The procedure:
(§1) Method: ELISA-Based In Vitro Kinase Assay
Recombinant Abl T315I protein was expressed in Sf9 cells using the pBlueBacHis2C baculovirus expression vector. Abl T315I was purified using an anion exchange Fast Flow Q-sepharose column (Amersham-Pharmacia Biotech) followed by HiTrap™-nickel affinity column (Amersham-Pharmacia Biotech). Purified Abl T3151 was used in the ELISA-based kinase assay to screen inhibitors as described above. The kinase reaction was performed in the presence of 50 mM Tris pH 7.5, 1 mM MnCl2, 5 mM MgCl2, 0.3 mM ATP, peptide substrate ([…]) and purified Abl T315I.
As to `CC(=O)Nc1ncc(-c2ccc(-c3cnc(NC(C)=O)[nH]3)cc2)[nH]1` [r114, N,N′-(5,5′-(1,4-phenylene)bis(1H-imidazole-5,2-diyl))diacetamide], the IC50 was 2.1 µM.

Turning to `O=C(Nc1ncc(-c2ccc3c(c2)Cc2ccccc2-3)s1)c1ccccc1I` [r87, N-(5-(9H-fluoren-7-yl)thiazol-2-yl)-2-iodobenzamide], the IC50 was found to be 6.43 ± 0.43 µM.

The target in the next test is T3, Recombinant ALK kinase (Homo sapiens, UniProt Q9UM73).
T3 construct: His tag (from pBlueBacHis2C vector); made in house; host or cells: insect cells, baculovirus
T3 sequence (Q9UM73 19-1620): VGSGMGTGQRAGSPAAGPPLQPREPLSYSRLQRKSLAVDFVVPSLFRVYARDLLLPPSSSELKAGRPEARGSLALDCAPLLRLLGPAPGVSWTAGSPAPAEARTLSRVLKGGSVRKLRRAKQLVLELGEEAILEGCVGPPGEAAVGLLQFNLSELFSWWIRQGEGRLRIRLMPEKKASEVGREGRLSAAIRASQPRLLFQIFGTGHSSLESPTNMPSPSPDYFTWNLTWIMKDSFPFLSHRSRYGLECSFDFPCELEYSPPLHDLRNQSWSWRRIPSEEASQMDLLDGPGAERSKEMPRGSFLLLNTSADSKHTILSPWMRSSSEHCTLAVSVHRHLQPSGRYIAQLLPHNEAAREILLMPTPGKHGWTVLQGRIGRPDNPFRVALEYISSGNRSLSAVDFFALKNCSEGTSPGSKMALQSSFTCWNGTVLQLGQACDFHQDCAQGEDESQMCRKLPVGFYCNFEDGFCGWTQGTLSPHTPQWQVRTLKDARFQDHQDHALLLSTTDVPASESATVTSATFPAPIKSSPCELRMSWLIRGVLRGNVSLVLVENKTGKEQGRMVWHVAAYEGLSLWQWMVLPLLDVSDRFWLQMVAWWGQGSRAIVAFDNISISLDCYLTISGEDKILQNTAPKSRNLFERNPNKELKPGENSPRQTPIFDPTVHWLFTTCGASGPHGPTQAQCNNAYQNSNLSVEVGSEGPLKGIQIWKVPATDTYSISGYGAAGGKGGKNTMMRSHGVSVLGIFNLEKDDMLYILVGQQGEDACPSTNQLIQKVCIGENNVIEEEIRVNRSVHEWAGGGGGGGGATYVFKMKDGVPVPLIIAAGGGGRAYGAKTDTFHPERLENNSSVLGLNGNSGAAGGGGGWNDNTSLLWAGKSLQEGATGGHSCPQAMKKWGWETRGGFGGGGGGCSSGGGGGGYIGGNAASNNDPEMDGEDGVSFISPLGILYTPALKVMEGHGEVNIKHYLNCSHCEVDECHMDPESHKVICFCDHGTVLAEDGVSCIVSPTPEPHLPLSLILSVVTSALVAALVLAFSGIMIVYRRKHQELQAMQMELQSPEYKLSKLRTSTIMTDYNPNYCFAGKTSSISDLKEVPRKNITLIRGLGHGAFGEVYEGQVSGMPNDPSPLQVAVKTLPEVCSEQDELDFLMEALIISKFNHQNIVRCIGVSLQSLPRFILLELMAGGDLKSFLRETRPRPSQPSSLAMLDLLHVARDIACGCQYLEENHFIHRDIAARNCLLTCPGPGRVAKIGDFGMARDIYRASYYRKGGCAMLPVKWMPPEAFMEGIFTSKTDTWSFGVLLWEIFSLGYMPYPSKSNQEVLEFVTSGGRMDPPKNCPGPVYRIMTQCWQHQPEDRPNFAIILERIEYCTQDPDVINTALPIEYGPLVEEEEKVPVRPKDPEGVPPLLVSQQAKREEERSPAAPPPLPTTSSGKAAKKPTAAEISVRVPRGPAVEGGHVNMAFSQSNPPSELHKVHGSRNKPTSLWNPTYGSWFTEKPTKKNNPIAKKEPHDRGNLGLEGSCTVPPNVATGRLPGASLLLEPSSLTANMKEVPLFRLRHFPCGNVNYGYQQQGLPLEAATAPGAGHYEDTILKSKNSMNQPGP
Nature of the test: ELISA-based in vitro kinase assay (ALK kinase inhibitory activity). The format is biochemical.
Conditions: not given
The procedure:
as §1
Recombinant ALK kinase was expressed in […] insect cells using the pBlueBacHis2C baculovirus vector system and purified using an anion exchange Fast Flow Q-sepharose column (Amersham-Pharmacia Biotech) followed by HiTrap™-nickel affinity column (Amersham-Pharmacia Biotech). Purified ALK protein was used to screen inhibitors in the ELISA-based kinase assay. […] Wells were then washed with 200 μl of wash buffer (PBS-Tween 0.05%) and left to dry for at least 2 hours at 37° C. The kinase reaction was performed in the presence of 50 mM Tris pH 7.5, 5 mM MnCl2, 5 mM MgCl2, 0.3 mM ATP and purified rALK in a total volume of 100 μl/well at 30° C. for 15 minutes. For inhibitor testing the reaction mix was preincubated with the inhibitor or solvent control for 10 mins at room temperature before transferring to the ELISA plate. After the reaction wells were washed 5 times with 200 μl of wash buffer. Phosphorylated peptide was detected using 100 μl/well of a mouse monoclonal anti-phosphotyrosine antibody (clone 4G10 UpstateBiotech Ltd) diluted 1:2000 in PBS+4% BSA. After 30 minutes incubation at room temperature the antibody was removed and wells were washed as described above. 100 μl of a secondary antibody (anti-mouse IgG, Horseradish Peroxidase linked whole antibody, Amersham Pharmacia Biotech) diluted 1:1000 in PBS+4% BSA was added to each well and the plate was incubated again for 30 minutes at room temperature before washing as above. The plate was developed using 100 μl/well TMB Substrate Solution (Endogen) and the reaction was stopped by adding an equal volume of H2SO4 0.36 M. Finally, the absorbance was read at 450 nm using an Ultrospec® 300 spectrophotometer (Amersham-Pharmacia Biotech).
With `CC(=O)Nc1ncc(-c2ccc(-c3cnc(NC(C)=O)[nH]3)cc2)[nH]1` [r114, N,N′-(5,5′-(1,4-phenylene)bis(1H-imidazole-5,2-diyl))diacetamide], the IC50 came to 0.75 ± 0.13 µM.

With `O=C(Nc1ncc(-c2ccc3c(c2)Cc2ccccc2-3)s1)c1ccccc1I` [r87, N-(5-(9H-fluoren-7-yl)thiazol-2-yl)-2-iodobenzamide], the IC50 stood at 4.3 ± 0.3 µM.

In the case of `CN1CCN(Cc2ccc(C(=O)Nc3nc(-c4ccc(-c5csc(NC(=O)c6ccc(CN7CCN(C)CC7)cc6)n5)cc4)cs3)cc2)CC1` [r218, N,N′-(4,4′-(1,4-phenylene)bis(thiazolle-4,2-diyl))bis(4-((4-methylpiperazin-1-yl)methyl)benzamide)], the IC50 is 1.3 ± 0.5 µM.

The test is the same for the next values; noted with them: purified rALK, 0.3 mM ATP, ALK peptide substrate, 30° C. 15 minutes; read-out: IC50 values on ALK.
Regarding `COCCCNc1nc(-c2ccc(-c3ccccc3)cc2)cs1` [r43], the concentration for half-maximal inhibition (IC50) stood at 27.3 µM.

Turning to `O=c1[nH]c(-c2ccc3c(c2)[nH]c2ccccc23)cs1` [r233], the IC50 came to 2.1 ± 0.7 µM.

`COc1ncc(-c2ccc(-c3cccnc3)cc2Cl)s1` [r262, 5-(2-cloro-4-(piridin-3-il)fenil)-2-metossitiazolo]: the IC50 came to 3.7 ± 0.5 µM.

For the molecule `CC(C)(C)c1csc(-c2ccc(-c3csnn3)cc2)n1` [r79], the IC50 came to 24 ± 1.5 µM.

In the case of `O=C(Nc1ccc(-c2ccc(-c3ncco3)nc2)cn1)c1ccc(Br)o1` [r200, 5-bromo-N-(5-(6-(oxazol-2-yl)pyridin-3-yl)pyridin-2-yl)furan-2-carboxamide], the IC50 worked out at 4.8 ± 0.7 µM.

For `O=C(Nc1nc(-c2ccc(-c3cccnc3)cn2)cs1)c1ccco1` [r124], the IC50 was determined as 11 ± 0.72 µM.

Regarding `c1cc(-c2ccc(-c3ccoc3)cc2)co1` [r236, 1,4-di(furan-3-yl)benzene], the IC50 worked out at 1.3 ± 0.4 µM.

As to `Cc1ccc(-c2csc(-c3ccc(-c4csnn4)cc3)n2)cc1` [r70], the IC50 is 5.5 ± 2.3 µM.

As for `O=[N+]([O-])c1ccc(-c2nc(-c3ccc(-c4csnn4)cc3)no2)cc1` [r75], the IC50 was 8.8 ± 0.85 µM.

Regarding `O=C(Nc1ncc(-c2ccc(-c3cccnc3)cc2Cl)s1)c1ccc(Br)o1` [r128, 5-Bromo-furan-2-carboxylic acid[5-(2-chloro-4-pyridin-3-yl-phenyl)-thiazol-2-yl]-amide], the IC50 amounted to 6.7 µM.

On to `c1ccc2c(-c3ncc(-c4ccc(-c5cnc(-c6cccc7ccccc67)o5)cc4)o3)cccc2c1` [r19], for which the IC50 was found to be 1.2 µM.

In the case of `Clc1ccc(-c2csc(-c3ccc(-c4csnn4)cc3)n2)cc1Cl` [r35], the IC50 is 7.7 ± 0.2 µM.

For the molecule `CCOC(=O)c1csc(-c2ccc(-c3csnn3)cc2)n1` [r80], the IC50 came to 48 µM.

In the case of `O=C(Nc1nc(-c2ccc(-c3cccnc3)cn2)cs1)c1ccccc1` [r122], the IC50 stood at 37 ± 2.7 µM.

As to `N#C/C(=C\c1cccs1)c1nc(-c2ccc(-c3ccccc3)cc2)cs1` [r67], the IC50 was 4.7 ± 0.7 µM.

In the case of `CN1CCN(Cc2ccc(C(=O)Nc3ncc(-c4ccc(-c5cccnc5)cc4Cl)s3)cc2)CC1` [r127, N-[5-(2-Chloro-4-pyridin-3-yl-phenyl)-thiazol-2-yl]-4-(4-methyl-piperazin-1-ylmethyl)-benzamide], the IC50 worked out at 4.6 µM.

For `Brc1ccccc1-c1ccc(-c2nccs2)nc1` [r116, 5-(2-bromophenyl)-2-(thiazol-2-yl)pyridine], the IC50 stood at 27 ± 1.6 µM.

In the case of `Cc1ccc(-c2csc(-c3ccc(-c4csnn4)cc3)n2)c(C)c1` [r69], the IC50 amounted to 9.3 ± 2.9 µM.

`Fc1ccc(-c2csc(-c3ccc(-c4csnn4)cc3)n2)cc1F` [r68]: the IC50 worked out at 3.1 ± 0.34 µM.

With `Nc1nc(-c2ccc3c(c2)[nH]c2ccccc23)cs1` [r156, 4-(9H-Carbazol-2-yl)-thiazol-2-ylamine], the IC50 amounted to 82 ± 9 µM.

Take `Nc1nc(-c2ccc(-c3cccnc3)cn2)cs1` [r121]: the IC50 is 42 ± 3.3 µM.

For the molecule `O=C(O)c1ccc(-c2ccc(-c3ccc(C(=O)O)o3)cc2)o1` [r239, 5,5′-(1,4-phenylene)difuran-2-carboxylic acid], the IC50 was 20 ± 2.3 µM.

`O=S(=O)(Cc1ccco1)Cc1nc(-c2ccc(-c3ccccc3)cc2)cs1` [r48]: the IC50 was 1.6 ± 0.15 µM.

For `O=C1Nc2ccc(Br)cc2/C1=N/Nc1nc(-c2ccc(-c3ccccc3)cc2)cs1` [r49], the IC50 stood at 1.5 ± 0.17 µM.

Consider `O=C(Nc1nc(-c2ccc3c(c2)[nH]c2ccccc23)cs1)c1ccc(-c2ccccc2)cc1` [r169], for which the IC50 worked out at 17 ± 1.4 µM.

On to `CN1CCN(Cc2ccc(C(=O)Nc3nc(-c4ccc5c(c4)Cc4ccccc4-5)cs3)cc2)CC1` [r89], for which the IC50 was determined as 1.3 ± 0.2 µM.

Consider `Cc1nc(-c2ccc(-c3csc(-c4cnccc4C(F)(F)F)n3)cc2)no1` [r81], for which the IC50 came to 46.5 µM.

For `O=C(N/N=C/c1c[nH]c2ccccc12)c1cc(-c2ccc(-c3ccccc3)cc2)[nH]n1` [r66], the IC50 was found to be 3.6 ± 0.5 µM.

Take `CN1CCN(C(=O)c2ccc(-c3ccc(-c4ccc(C(=O)N5CCN(C)CC5)o4)cc3)o2)CC1` [r237, (5-{4-[5-(4-Methyl-piperazine-1-carbonyl)-furan-2-yl]-phenyl}-furan-2-yl)-(4-methyl-piperazin-1-yl)-methasone]: the IC50 turned out to be 31 ± 5.7 µM.

As for `Cc1csc(-c2ccc(-c3csnn3)cc2)n1` [r78], the IC50 was found to be 103 µM.

As to `Clc1cc(-c2cccnc2)ccc1-c1cncs1` [r120, 3-(3-Chloro-4-thiazol-5-yl-phenyl)-pyridine], the IC50 was 12 ± 1.2 µM.

On to `O=C(Nc1nc(-c2ccc3c(c2)[nH]c2ccccc23)cs1)c1ccc(Br)o1` [r170, 5-Bromo-furan-2-carboxylic acid[4-(9H-carbazol-2-yl)-thiazol-2-yl]-amide], for which the IC50 came out at 14 ± 1.6 µM.

For `c1ccc(-c2ccc(-c3csc(N4CCOCC4)n3)cc2)cc1` [r85], the IC50 amounted to 16 ± 4.8 µM.

Consider `c1ccc(-c2ccc(-c3csc(-c4ccncc4)n3)cc2)cc1` [r83], for which the IC50 worked out at 11.7 µM.

For the molecule `Nc1ccc(-c2ccc(-c3cncs3)c(Cl)c2)cn1` [r235, 5-(3-cloro-4-(tiazol-5-il)fenil)piridin-2-ammina], the IC50 is 21 ± 2.5 µM.

In the case of `c1cc(-c2nc(-c3ccc4c(c3)OCCCO4)cs2)ccc1-c1csnn1` [r36], the IC50 stood at 27 µM.

Consider `O=C(c1ccc(Br)o1)N(C(=O)c1ccc(Br)o1)c1ccc(-c2ccc(-c3ncco3)nc2)cn1` [r201], for which the IC50 worked out at 17 ± 1.5 µM.

Turning to `Nc1nc(-c2ccc3c(c2)Cc2ccccc2-3)cs1` [r84], the IC50 stood at 11 ± 1.3 µM.

For `c1ccc(-c2ccc(-c3cncs3)nc2)nc1` [r113], the IC50 stood at 57 ± 5 µM.

For `O=C(Nc1nc(-c2ccc3c(c2)[nH]c2ccccc23)cs1)c1ccccc1` [r158, N-[4-(9H-Carbazol-2-yl)-thiazol-2-yl]-benzamide], the IC50 came out at 10 ± 0.73 µM.

The values above are taken from US20110112110A1, “ANTIPROLIFERATIVE COMPOUNDS AND THERAPEUTIC USES THEREOF” (UNIVERSITA' DEGLISTUDI DI MILANO- BICOCCA, priority 2008, published 2011).
